Like-named read-outs stand apart in the source and are kept apart here.
Columns and labels:
[1] = test system: Green Peach Aphid (GPA) (Myzus persicae) (MYZUPE); experiment: Bioassay for Green Peach Aphid (GPA), foliar spray on cabbage seedlings; format: in vivo; conditions: 72 h, read-out: GPA 200 ppm, % Control (or Mortality) rating
Outline: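 Foliar spray test: 200 ppm solutions (0.025% Tween 20 in water, 20% acetone/methanol) applied to both leaf sides of aphid-infested cabbage seedlings. After 3 days at about 25° C, live aphids per plant were counted; control corrected to solvent check via Abbott's formula.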

[2] = test system: Sweetpotato Whitefly-Crawler (WF) (Bemisia tabaci) (BEMITA); experiment: Insecticidal test for Sweetpotato Whitefly-Crawler (WF) in foliar spray assay on cotton plants; format: in vivo; conditions: 216 h, read-out: WF 200 ppm, % Control (or Mortality) rating
Outline: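 Whitefly nymph control on egg-infested cotton (eggs laid 4–5 days pre-treatment), foliar spray at 200 ppm test compound. Live late-stage nymphs counted microscopically 9 days later at ~25 °C; control calculated by Abbott's formula relative to acetone-diluent-sprayed plants.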

[3] = 200 ppm foliar spray on cabbage seedlings, graded after three days, Abbott corrected % control
[4] = 200 ppm foliar spray on cotton plants, graded after 9 days, Abbott corrected % control

Row | SMILES | mortality at 200 ppm [1, 3] [%] | mortality at 200 ppm [2, 4] [%] | mortality at 200 ppm ([1]; foliar) [%] | mortality at 200 ppm ([2]; foliar) [%]
1 | CCN(C(=O)CCC(=O)N(C)OC)c1cn(-c2cccnc2)nc1Cl [Compound F78, N1-(3-Chloro-1-(pyridin-3-yl)-1H-pyrazol-4-yl)-N1-ethyl-N4-methoxy-N4-methylsuccinamide] | 80 to 100 | 80 to 100 |  | 
2 | CCSC(=O)N(C)C(C)C(=O)N(CC)c1cn(-c2cccnc2)nc1Cl (stereo not shown) [Compound F79, S-Ethyl (1-((3-chloro-1-(pyridin-3-yl)-1H-pyrazol-4-yl)(ethyl)amino)-1-oxopropan-2-yl)(methyl) carbamothioate] | 0 to 80 | 0 to 80 |  | 
3 | CCN(C(=O)CCC(=O)NCc1ccc(F)cc1)c1cn(-c2cccnc2)nc1Cl [Compound F80, N1-(3-Chloro-1-(pyridin-3-yl)-1H-pyrazol-4-yl)-N1-ethyl-N4-(4-fluorobenzyl)succinamide] | 0 to 80 | 80 to 100 |  | 
4 | CCN1CC(CCCC(=O)N(CC)c2cn(-c3cccnc3)nc2Cl)C1=O (stereo not shown) [Compound F81, N-(3-Chloro-1-(pyridin-3-yl)-1H-pyrazol-4-yl)-N-ethyl-4-(1-ethyl-2-oxoazetidin-3-yl)butanamide] | 80 to 100 | 80 to 100 |  | 
5 | O=C(CCC(=O)N(CC1CC1)c1cn(-c2cccnc2)nc1Cl)N1CCCCC1 [Compound F82, N-(3-Chloro-1-(pyridin-3-yl)-1H-pyrazol-4-yl)-N-(cyclopropylmethyl)-4-oxo-4-(piperidin-1-yl)butanamide] | 0 to 80 | 80 to 100 |  | 
6 | CCN(C(=O)CN(C)C(=O)c1ccccc1)c1cn(-c2cccnc2)nc1Cl [Compound F83, N-(2-((3-chloro-1-(pyridin-3-yl)-1H-pyrazol-4-yl)(ethyl)amino)-2-oxoethyl)-N-methylbenzamide] | 80 to 100 | 0 to 80 |  | 
7 | CCN1CC(CC(=O)N(CC)c2cn(-c3cccnc3)nc2Cl)C1=O (stereo not shown) [Compound F84, N-(3-Chloro-1-(pyridin-3-yl)-1H-pyrazol-4-yl)-N-ethyl-2-(1-ethyl-2-oxoazetidin-3-yl)acetamide] | 80 to 100 | 80 to 100 |  | 
8 | CCN(C(=O)CCC(=O)N(C)CC(F)(F)F)c1cn(-c2cccnc2)nc1Cl [Compound F85, N1-(3-Chloro-1-(pyridin-3-yl)-1H-pyrazol-4-yl)-N1-ethyl-N4-methyl-N4-(2,2,2-trifluoroethyl) succinamide] | 80 to 100 | 80 to 100 |  | 
9 | CC(=O)N[C@@H]1C=C[C@H](C(=O)N(C)c2cn(-c3cccnc3)nc2Cl)C1 [Compound F86, (1R,4S)-4-acetamido-N-(3-chloro-1-(pyridin-3-yl)-1H-pyrazol-4-yl)-N-methyl-cyclopent-2-enecarboxamide] | 80 to 100 | 80 to 100 |  | 
10 | CCN(C(=O)CCN1CCSC1=O)c1cn(-c2cccnc2)nc1Cl [Compound F88, N-(3-Chloro-1-(pyridin-3-yl)-1H-pyrazol-4-yl)-N-ethyl-3-(2-oxothiazolidin-3-yl)propanamide] | 0 to 80 | 80 to 100 |  | 
11 | CCN(C(=O)CCN(CC(F)F)C(=O)CCC(F)(F)F)c1cn(-c2cccnc2)nc1Cl [Compound F89, N-(3-((3-Chloro-1-(pyridin-3-yl)-1H-pyrazol-4-yl)(ethyl)amino)-3-oxopropyl)-N-(2,2-difluoroethyl)-4,4,4-trifluorobutanamide] | 80 to 100 | 80 to 100 |  | 
12 | CN(CC(=O)N(C)c1cn(-c2cccnc2)nc1Cl)C(=O)OC(C)(C)C [Compound F90, tert-Butyl (2-((3-chloro-1-(pyridin-3-yl)-1H-pyrazol-4-yl)(methyl)amino)-2-oxoethyl)(methyl) carbamate] |  |  | 0 to 80 | 80 to 100
13 | CCN(C(=O)CCC1CN(Cc2ccc(C(F)(F)F)nc2)C1=O)c1cn(-c2cccnc2)nc1Cl (stereo not shown) [Compound F91, N-(3-Chloro-1-(pyridin-3-yl)-1H-pyrazol-4-yl)-N-ethyl-3-(2-oxo-1-((6-(trifluoromethyl)pyridin-3-yl)methyl)azetidin-3-yl)propanamide] | 80 to 100 | 80 to 100 |  | 
14 | CCN(C(=O)C(C)OC(=O)N(C)C)c1cn(-c2cccnc2)nc1Cl (stereo not shown) [Compound F93, 1-((3-chloro-1-(pyridin-3-yl)-1H-pyrazol-4-yl)(ethyl)amino)-1-oxopropan-2-yl dimethylcarbamate] |  |  | 80 to 100 | 80 to 100
15 | CCN(C(=O)CCN(C)C(=O)CCC(F)(F)F)c1cn(-c2cccnc2)nc1Cl [Compound F94, N-(3-((3-Chloro-1-(pyridin-3-yl)-1H-pyrazol-4-yl)(ethyl)amino)-3-oxopropyl)-4,4,4-trifluoro-N-methylbutanamide] | 80 to 100 | 80 to 100 |  | 
16 | O=C(CCC(=O)N(CC1CC1)c1cn(-c2cccnc2)nc1Cl)N1CCCC1 [Compound F95, N-(3-Chloro-1-(pyridin-3-yl)-1H-pyrazol-4-yl)-N-(cyclopropylmethyl)-4-oxo-4-(pyrrolidin-1-yl)butanamide] | 0 to 80 | 0 to 80 |  | 
17 | CCN(C(=O)C(C)N(C)C(C)=O)c1cn(-c2cccnc2)nc1Cl (stereo not shown) [Compound F96, N-(3-Chloro-1-(pyridin-3-yl)-1H-pyrazol-4-yl)-N-ethyl-2-(N-methylacetamido)propanamide] | 80 to 100 | 80 to 100 |  | 
18 | CCN(C(=O)CNC(=O)CCC(F)(F)F)c1cn(-c2cccnc2)nc1Cl [Compound F97, N-(2-((3-Chloro-1-(pyridin-3-yl)-1H-pyrazol-4-yl)(ethyl)amino)-2-oxoethyl)-4,4,4-trifluorobutanamide] | 80 to 100 | 80 to 100 |  | 
19 | O=C1CCCN1CC(=O)N(CC1CC1)c1cn(-c2cccnc2)nc1Cl [Compound F98, N-(3-chloro-1-(pyridin-3-yl)-1H-pyrazol-4-yl)-N-(cyclopropylmethyl)-2-(2-oxopyrrolidin-1-yl)acetamide] | 80 to 100 | 80 to 100 |  | 
20 | CCN(C(=O)CNC(=O)/C=C/C(F)(F)F)c1cn(-c2cccnc2)nc1Cl [Compound F99, (E)-N-(2-((3-Chloro-1-(pyridin-3-yl)-1H-pyrazol-4-yl)(ethyl)amino)-2-oxoethyl)-4,4,4-trifluorobut-2-enamide] | 0 to 80 | 80 to 100 |  | 
21 | CCN(C(=O)CCC(=O)N1CCCCCC1)c1cn(-c2cccnc2)nc1Cl [Compound F100, 4-(Azepan-1-yl)-N-(3-chloro-1-(pyridin-3-yl)-1H-pyrazol-4-yl)-N-ethyl-4-oxobutanamide] | 0 to 80 | 80 to 100 |  | 
22 | CCN(C(=O)CCNC(=O)CC#N)c1cn(-c2cccnc2)nc1Cl [Compound F101, N-(3-Chloro-1-(pyridin-3-yl)-1H-pyrazol-4-yl)-3-(2-cyanoacetamido)-N-ethylpropanamide] | 0 to 80 | 80 to 100 |  | 
23 | CCN1CC(CCC(=O)N(CC)c2cn(-c3cccnc3)nc2Cl)C1=O (stereo not shown) [Compound F103, N-(3-Chloro-1-(pyridin-3-yl)-1H-pyrazol-4-yl)-N-ethyl-3-(1-ethyl-2-oxoazetidin-3-yl)propanamide] | 80 to 100 | 80 to 100 |  | 
